Laboratory results: patent US5264347A, “Method for the determination of α-ketoisocaproate in biological samples using D-α-hydroxyisocaproic dehydrogenase from lactobacillus casei” (Kernforschungsanlage Juelich GmbH, priority 1988, dated 1993)

Columns and labels:
[1] = target: T1, hydroxy-acid dehydrogenase (enzyme solution) of L. casei ssp. pseudoplantarum DSM 20 207 (Lacticaseibacillus paracasei, UniProt P17584); assay: Selection of a suitable enzyme: initial reaction rate with keto acid, NADH absorption at 340 nm; format: biochemical, Lactobacillus casei ssp. pseudoplantarum; conditions: 0.15 mM keto acid, 0.2 mM NADH, pH 7.0
T1 sequence (P17584 1-333): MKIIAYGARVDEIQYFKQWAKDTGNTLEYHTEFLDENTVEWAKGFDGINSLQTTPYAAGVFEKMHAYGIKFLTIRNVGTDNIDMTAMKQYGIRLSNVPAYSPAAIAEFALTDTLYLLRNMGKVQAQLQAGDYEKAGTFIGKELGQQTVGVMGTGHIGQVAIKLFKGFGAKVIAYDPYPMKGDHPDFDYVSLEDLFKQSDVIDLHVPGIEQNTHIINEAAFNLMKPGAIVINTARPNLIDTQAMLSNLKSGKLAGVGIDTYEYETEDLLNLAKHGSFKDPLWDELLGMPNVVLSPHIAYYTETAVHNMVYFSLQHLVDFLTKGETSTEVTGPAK
Method: (§1) The species Lactobacillus casei is currently divided into five subgroups (subspecies). […] The three keto acids KIC, KMV and KIV were used in a concentration of 0.15 mM (final concentration in the assay).
(§2) For the assay mixture, the microorganisms which had been cultured under customary conditions were harvested, the cells were disrupted by mechanical action, and the supernatant obtained by centrifugation was used as "enzyme solution" for the assay.
(§3) The assay mixture contained:
(§4) 0.1M potassium phosphate buffer, pH 7.0;
(§5) 0.020 ml of enzyme solution (0.1-0.2 mg of protein);
(§6) The initial reaction rate was determined by measuring the absorption at 340 nm as a function of time. (The reaction rate is reported in international units (IU)/min.) The results obtained are summarized below.

[2] = target: T2, hydroxy-acid dehydrogenase (enzyme solution) of L. casei ssp. pseudoplantarum DSM 20 008 (Lacticaseibacillus paracasei, UniProt P17584); assay: as above; format: biochemical, Lactobacillus casei ssp. pseudoplantarum; conditions: 0.15 mM keto acid, 0.2 mM NADH, pH 7.0
T2 construct: the cells were disrupted by mechanical action, and the supernatant obtained by centrifugation was used as; endogenous in cells; host or cells: Lactobacillus casei ssp. pseudoplantarum DSM 20008, cell-free supernatant
T2 sequence (P17584 1-333): T1 sequence (P17584 1-333)
Method: as §1, §2, §3, §4, §5, §6

[3] = test system: hydroxy-acid dehydrogenase (enzyme solution) of L. case ssp. alactosus DSM 20 020; assay: as above; format: biochemical; conditions: 0.15 mM keto acid, 0.2 mM NADH, pH 7.0
Method: as §1, §2, §3, §4, §5, §6

[4] = test system: hydroxy-acid dehydrogenase (enzyme solution) of L. casei ssp. tolerans DSM 20 258; assay: as above; format: biochemical; conditions: 0.15 mM keto acid, 0.2 mM NADH, pH 7.0
Method: as §1, §2, §3, §4, §5, §6

[5] = test system: hydroxy-acid dehydrogenase (enzyme solution) of L. casei ssp. rhamosus DSM 20 021; assay: as above; format: biochemical; conditions: 0.15 mM keto acid, 0.2 mM NADH, pH 7.0
Method: as §1, §2, §3, §4, §5, §6

[6] = target: T3, D-α-hydroxyisocaproic dehydrogenase from Lactobacillus casei ssp. pseudoplantarum (DSM 20008) (Lacticaseibacillus paracasei, UniProt P17584); assay: Enzymatic selectivity for KIC: initial reaction rates versus keto acid concentration (FIG. 1); format: biochemical; conditions: change per minute in absorption at 340 nm versus keto-acid concentration, NADH present
T3 construct: D-α-hydroxyisocaproic dehydrogenase from Lactobacillus casei ssp. pseudoplantarum (DSM 20008); endogenous in cells; host or cells: Lactobacillus casei ssp. pseudoplantarum DSM 20008 (enzyme isolated from the strain's own cells)
T3 sequence (P17584 1-333): T1 sequence (P17584 1-333)
Source text: This selectivity is illustrated in FIG. 1, which plots a measure of reaction rate (change per minute in absorption at 340 nm), in the presence of NADH and a Lactobacillus casei D-α-hydroxyisocaproicdehydrogenase, versus keto-acid concentration for KIC, KMV and KIV, respectively. In FIG. 1, .largecircle.--.largecircle. represents ketoisocaproate, O O represents ketomethylvalerate and .quadrature.----.quadrature. represents ketoisovalerate, respectively.
This entailed use of standard solutions of the three keto acids, each of known concentration (0.2 to 15 ωg/ml of assay mixture).
as §3, §4
stepped concentrations of keto acids.
The initial reaction rates (ΔA340 /min) were measured at 340 nm. […] This difference would be sufficient for a selective determination of KIC, for example, in serum.

[7] = test system: hydroxy-acid dehydrogenase (enzyme solution) of L. curvatus DSM 20 019; assay: Selection of a suitable enzyme: initial reaction rate with keto acid, NADH absorption at 340 nm; format: biochemical; conditions: 0.15 mM keto acid, 0.2 mM NADH, pH 7.0
Method: (§7) The species Lactobacillus casei is currently divided into five subgroups (subspecies). […] The three keto acids KIC, KMV and KIV were used in a concentration of 0.15 mM (final concentration in the assay). […] For the assay mixture, the microorganisms which had been cultured under customary conditions were harvested, the cells were disrupted by mechanical action, and the supernatant obtained by centrifugation was used as "enzyme solution" for the assay. Besides the various Lactobacillus casei strains, other Lactobacillus strains were also investigated; two typical representatives are listed in a table below. The assay mixture contained: 0.1M potassium phosphate buffer, pH 7.0; 0.2 mM NADH; 0.020 ml of enzyme solution (0.1-0.2 mg of protein); 0.15 mM keto acid (as shown in the table). The initial reaction rate was determined by measuring the absorption at 340 nm as a function of time. (The reaction rate is reported in international units (IU)/min.) The results obtained are summarized below.

[8] = target: T4, hydroxy-acid dehydrogenase (enzyme solution) of L. confusus DSM 20 196 (Weissella confusa, UniProt P14295); assay: as above; format: biochemical; conditions: 0.15 mM keto acid, 0.2 mM NADH, pH 7.0
T4 sequence (P14295 1-310): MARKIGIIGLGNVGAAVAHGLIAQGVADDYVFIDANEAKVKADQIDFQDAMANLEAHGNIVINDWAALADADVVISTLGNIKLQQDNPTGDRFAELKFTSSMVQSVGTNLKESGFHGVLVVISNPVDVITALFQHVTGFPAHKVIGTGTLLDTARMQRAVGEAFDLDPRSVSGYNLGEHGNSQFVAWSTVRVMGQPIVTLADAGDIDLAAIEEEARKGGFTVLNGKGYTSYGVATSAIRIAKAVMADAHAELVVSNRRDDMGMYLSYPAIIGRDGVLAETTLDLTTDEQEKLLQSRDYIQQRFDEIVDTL
Method: as §7

[9] = target: T5, hydroxy-acid dehydrogenase (enzyme solution) of L. casei ssp. casei DSM 20 011 (Lacticaseibacillus casei, UniProt A0AAN1C5W2); assay: as above; format: biochemical, Lactobacillus casei ssp. casei; conditions: 0.15 mM keto acid, 0.2 mM NADH, pH 7.0
T5 sequence (A0AAN1C5W2 1-333): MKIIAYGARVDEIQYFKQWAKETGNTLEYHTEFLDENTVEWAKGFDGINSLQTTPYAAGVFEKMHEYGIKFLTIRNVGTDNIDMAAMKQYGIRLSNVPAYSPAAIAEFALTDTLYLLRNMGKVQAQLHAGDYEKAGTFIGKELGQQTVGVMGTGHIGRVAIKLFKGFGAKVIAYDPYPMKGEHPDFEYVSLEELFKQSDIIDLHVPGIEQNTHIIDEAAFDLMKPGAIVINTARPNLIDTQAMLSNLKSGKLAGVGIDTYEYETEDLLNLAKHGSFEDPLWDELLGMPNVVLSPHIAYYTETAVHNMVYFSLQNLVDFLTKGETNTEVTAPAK
Method: as §1, §2, §3, §4, §5, §6

CCC(C)C(=O)C(=O)O (stereo not drawn) [KMV, ketomethylvalerate]
initial reaction rate [1]: 0 IU/min
initial reaction rate [2]: 0.12 IU/min
initial reaction rate [3]: 0 IU/min
initial reaction rate [4]: 0 IU/min
initial reaction rate [5]: 0 IU/min
enzymatic conversion relative to the conversion of KIC (FIG. 1) [6]: can be ignored
initial reaction rate [7]: 1.40 IU/min
initial reaction rate [8]: 0.90 IU/min
initial reaction rate [9]: 0 IU/min
